{
  "source": "patent US20160374944A1",
  "about": "“COMPOSITIONS AND METHODS FOR TREATING AND PREVENTING CANCER BY TARGETING AND INHIBITING CANCER STEM CELLS” (priority 2011, published 2016)",
  "key": {"[1]": {"system": "Gli1 and Gli2 in pancreatic CSCs", "assay": "nuclear translocation of Gli1 and Gli2 (immunostaining)", "assay_type": "cell-based, human", "conditions": "EGCG 40 or 60 μM, 24 h", "experimental": "Pancreatic CSCs were treated with or without EGCG (40 or 60 μM) for 24 h. At the end of incubation period, CSCs were fixed with paraformaldehyde, permeabilized with titron X100, and blocked with 5% normal goat serum. Cells were then treated with either anti-Gli1 or anti-Gli2 antibody, followed by secondary antibody plus DAPI. Stained cells were mounted and visualized under a fluorescence microscope. Blue fluorescence of DAPI was changed to red color for a better contrast."}, "[2]": {"system": "TCF/LEF activity in pancreatic CSCs", "assay": "TCF/LEF responsive reporter", "assay_type": "cell-based, human", "protocol": "(A) Pancreatic CSCs were treated with EGCG (0-60 μM) for 48 h. At the end of incubation period, the expression of Snail, ZEB1 and Slug was measured by q-RT-PCR. […] (B) Transwell migration assay. Pancreatic CSCs were plated in the top chamber of the transwell and treated with EGCG (0-60 μM) for 24 h. Cells migrated to the lower chambered were fixed with methanol, stained with crystal violet and counted. […] (C) Matrigel invasion assay. CSCs were plated onto the Matrigel-coated membrane in the top chamber of the transwell and treated with EGCG (0-60 μM) for 48 h. Cells invaded to the lower chambered were fixed with methanol, stained with crystal violet and counted. […] (D) Effects of EGCG on TCF-1/LEF activity. […] Transduced CSCs were treated with EGCG (0-60) for 48 h and the GFP fluorescence was measured. […] Cell viability was measured by trypan blue assay. […] At the end of incubation period, colonies were counted. […] Cells invaded to the lower chambered were fixed with methanol, stained with crystal violet and counted. […] Cells migrated to the lower chambered were fixed with methanol, stained with crystal violet and counted. […] Apoptosis was measured by TUNEL assay. […] Transduced CSCs were treated with EGCG (40 μM) with or without quercetin (20 μM) for 48 hrs and the luciferase activity was measured."}, "Brain CSCs": {"system": "Brain CSCs", "assay": "cell viability by XTT assay", "assay_type": "cell-based", "conditions": "3 days; 0-20 μM", "protocol": "(A-B) Brain CSCs were treated with sulforaphane (0-20 μM), and honokiol (0-20 μM) for 3 days, and cell viability was measured by XTT assay."}, "Pancreatic CSCs": {"system": "Pancreatic CSCs", "assay": "pancreatic CSCs xenografted sub-cutaneously in NSG mice", "assay_type": "in vivo", "conditions": "NOD/SCID/IL2R gamma mice, 20 mg/kg, 6 weeks", "protocol": "(A) Pancreatic CSCs were orthotopically implanted in pancreas of NSG mice, and treated with or without sulforaphane 20 mg/kg, for 6 weeks, (B and C) Pancreatic CSCs were xenografted sub-cutaneously in NSG mice, and treated with or without rottlerin and embelin 20 mg/kg, for 6 weeks, (D and E) Prostate CSCs were xenografted sub-cutaneously in NSG mice, and treated with or without rottlerin and embelin 20 mg/kg, for 6 weeks. At the end of the treatment, weights of tumors in treated mice were compared with control mice."}},
  "data": [
    {"smiles": "O=C(O[C@@H]1Cc2c(O)cc(O)cc2O[C@@H]1c1cc(O)c(O)c(O)c1)c1cc(O)c(O)c(O)c1", "note": "[EGCG, epigallocatechin gallate]", "values": [
      {"measurement": "nuclear expression of Gli1 protein", "setting": "[1]", "result": "inhibited the nuclear expression"},
      {"measurement": "nuclear expression of Gli2 protein", "setting": "[1]", "result": "inhibited the nuclear expression"},
      {"measurement": "TCF/LEF activity", "setting": "[2]; EGCG 0-60, 48 h", "result": "inhibited TCF/LEF activity"},
      {"measurement": "TCF/LEF transcriptional activity", "setting": "[2]; EGCG 40 μM with or without quercetin 20 μM, 48 hrs, luciferase", "result": "inhibited"}
    ]},
    {"smiles": "C[S+]([O-])CCCCN=C=S", "note": "(stereo not drawn) [sulforaphane]", "values": [
      {"measurement": "cell viability", "setting": "Brain CSCs", "result": "inhibit cell viability"}
    ]},
    {"smiles": "CC(=O)c1c(O)c(C)c(O)c(Cc2c(O)c3c(c(C(=O)/C=C/c4ccccc4)c2O)OC(C)(C)C=C3)c1O", "note": "[rottlerin]", "values": [
      {"measurement": "tumor growth (weights of tumors vs control mice)", "setting": "Pancreatic CSCs", "result": "inhibit tumor growth"}
    ]}
  ]
}
